What was measured:
Type in all cases: cell-based
[1] = biological target: T1, human NMDA receptor GluN1-GluN2D (Homo sapiens, UniProt O15399+Q05586); assay: FLIPR calcium assay, quinolinic acid, gentamicin, dextromethadone (Example 5 Part II), GluN1-GluN2D-CHO; settings: 10 μM glycine; for calcium response (mean±SEM): GluN2D, n=42
T1 construct: expressed in transfected cells; host or cells: CHO
Method in brief: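 CHO lines expressing diheteromeric human GluN1/GluN2A–D, loaded 1 h with Fluo-4, tested by FLIPR for intracellular calcium with 10 μM glycine present. Quinolinic acid, gentamicin and test items were run as concentration-response curves, alone or combined. EC50 obtained from a four-parameter Hill fit.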

[2] = biological target: T2, human NMDA receptor GluN1-GluN2C (Homo sapiens, UniProt Q05586+Q14957); assay: FLIPR calcium assay, test item effect on L-glutamate CRC, GluN1-GluN2C-CHO
T2 construct: expressed in transfected cells; host or cells: CHO
T2 sequence (Q14957 20-1233, other chains not shown): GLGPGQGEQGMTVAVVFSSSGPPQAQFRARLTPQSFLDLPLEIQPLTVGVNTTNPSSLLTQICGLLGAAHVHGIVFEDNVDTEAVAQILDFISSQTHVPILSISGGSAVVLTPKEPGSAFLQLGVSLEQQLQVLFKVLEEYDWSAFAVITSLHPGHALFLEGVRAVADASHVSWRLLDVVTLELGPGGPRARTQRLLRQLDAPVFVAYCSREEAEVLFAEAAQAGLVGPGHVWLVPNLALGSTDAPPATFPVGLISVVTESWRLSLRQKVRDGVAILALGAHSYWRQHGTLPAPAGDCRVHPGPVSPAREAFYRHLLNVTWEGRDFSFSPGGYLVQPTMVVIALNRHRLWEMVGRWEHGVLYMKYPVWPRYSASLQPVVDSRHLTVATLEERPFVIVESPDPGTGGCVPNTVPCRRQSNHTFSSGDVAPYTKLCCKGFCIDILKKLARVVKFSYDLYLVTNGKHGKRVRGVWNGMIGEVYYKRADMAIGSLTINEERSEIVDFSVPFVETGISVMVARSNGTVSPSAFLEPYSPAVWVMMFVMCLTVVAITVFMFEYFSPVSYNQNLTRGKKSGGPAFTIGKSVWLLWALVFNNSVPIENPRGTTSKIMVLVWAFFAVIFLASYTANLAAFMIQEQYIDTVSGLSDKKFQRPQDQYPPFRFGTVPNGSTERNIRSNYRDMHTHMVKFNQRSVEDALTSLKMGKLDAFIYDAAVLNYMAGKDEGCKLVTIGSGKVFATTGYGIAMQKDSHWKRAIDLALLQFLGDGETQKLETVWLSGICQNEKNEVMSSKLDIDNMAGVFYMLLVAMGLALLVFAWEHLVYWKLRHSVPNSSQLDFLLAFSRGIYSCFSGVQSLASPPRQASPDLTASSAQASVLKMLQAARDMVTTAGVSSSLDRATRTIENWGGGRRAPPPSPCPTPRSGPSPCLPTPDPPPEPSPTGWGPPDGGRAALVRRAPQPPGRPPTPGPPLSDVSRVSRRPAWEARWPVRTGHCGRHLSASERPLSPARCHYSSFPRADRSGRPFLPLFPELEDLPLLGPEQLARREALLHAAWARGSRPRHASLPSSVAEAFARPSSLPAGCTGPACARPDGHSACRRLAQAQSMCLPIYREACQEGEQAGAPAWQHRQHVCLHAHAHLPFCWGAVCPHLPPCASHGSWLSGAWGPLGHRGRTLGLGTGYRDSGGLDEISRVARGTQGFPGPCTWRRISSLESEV

[3] = biological target: T3, human NMDA receptor GluN1-GluN2B (Homo sapiens, UniProt Q05586+Q13224); assay: cell-based
T3 construct: expressed in transfected cells; host or cells: CHO
T3 sequence (Q13224 27-1484, other chains not shown): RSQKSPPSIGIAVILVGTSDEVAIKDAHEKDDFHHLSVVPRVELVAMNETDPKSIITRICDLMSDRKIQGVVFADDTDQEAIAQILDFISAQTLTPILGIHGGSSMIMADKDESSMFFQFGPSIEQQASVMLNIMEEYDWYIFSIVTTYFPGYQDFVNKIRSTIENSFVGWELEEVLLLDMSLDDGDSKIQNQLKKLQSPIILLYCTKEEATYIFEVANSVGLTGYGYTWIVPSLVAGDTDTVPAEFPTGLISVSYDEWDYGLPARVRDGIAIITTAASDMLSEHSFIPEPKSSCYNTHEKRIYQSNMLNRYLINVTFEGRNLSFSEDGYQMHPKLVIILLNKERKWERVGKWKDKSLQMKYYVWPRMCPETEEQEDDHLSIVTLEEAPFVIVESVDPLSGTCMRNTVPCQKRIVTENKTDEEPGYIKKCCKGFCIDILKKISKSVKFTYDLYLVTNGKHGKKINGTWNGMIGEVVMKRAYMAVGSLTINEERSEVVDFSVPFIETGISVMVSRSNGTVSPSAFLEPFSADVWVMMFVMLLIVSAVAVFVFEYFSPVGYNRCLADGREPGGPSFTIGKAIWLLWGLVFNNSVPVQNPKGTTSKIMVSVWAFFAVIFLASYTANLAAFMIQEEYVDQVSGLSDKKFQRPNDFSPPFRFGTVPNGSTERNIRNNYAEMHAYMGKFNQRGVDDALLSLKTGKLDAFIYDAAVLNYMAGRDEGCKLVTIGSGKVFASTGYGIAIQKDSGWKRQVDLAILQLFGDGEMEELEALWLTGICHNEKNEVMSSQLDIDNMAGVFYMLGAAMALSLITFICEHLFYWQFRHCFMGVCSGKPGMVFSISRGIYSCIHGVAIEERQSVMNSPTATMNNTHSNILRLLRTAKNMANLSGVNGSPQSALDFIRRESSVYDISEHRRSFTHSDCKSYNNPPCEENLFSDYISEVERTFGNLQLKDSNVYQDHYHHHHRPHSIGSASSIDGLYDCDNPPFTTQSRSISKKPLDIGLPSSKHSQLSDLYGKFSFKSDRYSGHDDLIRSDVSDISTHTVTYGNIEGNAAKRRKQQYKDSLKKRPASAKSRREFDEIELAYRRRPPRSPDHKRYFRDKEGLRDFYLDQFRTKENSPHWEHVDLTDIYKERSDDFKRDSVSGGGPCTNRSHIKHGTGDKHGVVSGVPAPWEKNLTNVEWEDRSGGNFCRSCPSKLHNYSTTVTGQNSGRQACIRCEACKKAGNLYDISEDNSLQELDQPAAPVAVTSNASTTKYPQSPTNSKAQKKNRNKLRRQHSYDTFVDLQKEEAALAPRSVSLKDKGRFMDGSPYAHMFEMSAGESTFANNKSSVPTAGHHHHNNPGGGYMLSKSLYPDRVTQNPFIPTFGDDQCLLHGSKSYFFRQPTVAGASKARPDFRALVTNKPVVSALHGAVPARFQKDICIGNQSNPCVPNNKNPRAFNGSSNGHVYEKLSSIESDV

[4] = biological target: T4, human NMDA receptor GluN1-GluN2A (Homo sapiens, UniProt Q05586+Q12879); assay: FLIPR calcium assay, test item effect on L-glutamate CRC, GluN1-GluN2A-CHO
T4 construct: expressed in transfected cells; host or cells: CHO
T4 sequence (Q12879 23-1464, other chains not shown): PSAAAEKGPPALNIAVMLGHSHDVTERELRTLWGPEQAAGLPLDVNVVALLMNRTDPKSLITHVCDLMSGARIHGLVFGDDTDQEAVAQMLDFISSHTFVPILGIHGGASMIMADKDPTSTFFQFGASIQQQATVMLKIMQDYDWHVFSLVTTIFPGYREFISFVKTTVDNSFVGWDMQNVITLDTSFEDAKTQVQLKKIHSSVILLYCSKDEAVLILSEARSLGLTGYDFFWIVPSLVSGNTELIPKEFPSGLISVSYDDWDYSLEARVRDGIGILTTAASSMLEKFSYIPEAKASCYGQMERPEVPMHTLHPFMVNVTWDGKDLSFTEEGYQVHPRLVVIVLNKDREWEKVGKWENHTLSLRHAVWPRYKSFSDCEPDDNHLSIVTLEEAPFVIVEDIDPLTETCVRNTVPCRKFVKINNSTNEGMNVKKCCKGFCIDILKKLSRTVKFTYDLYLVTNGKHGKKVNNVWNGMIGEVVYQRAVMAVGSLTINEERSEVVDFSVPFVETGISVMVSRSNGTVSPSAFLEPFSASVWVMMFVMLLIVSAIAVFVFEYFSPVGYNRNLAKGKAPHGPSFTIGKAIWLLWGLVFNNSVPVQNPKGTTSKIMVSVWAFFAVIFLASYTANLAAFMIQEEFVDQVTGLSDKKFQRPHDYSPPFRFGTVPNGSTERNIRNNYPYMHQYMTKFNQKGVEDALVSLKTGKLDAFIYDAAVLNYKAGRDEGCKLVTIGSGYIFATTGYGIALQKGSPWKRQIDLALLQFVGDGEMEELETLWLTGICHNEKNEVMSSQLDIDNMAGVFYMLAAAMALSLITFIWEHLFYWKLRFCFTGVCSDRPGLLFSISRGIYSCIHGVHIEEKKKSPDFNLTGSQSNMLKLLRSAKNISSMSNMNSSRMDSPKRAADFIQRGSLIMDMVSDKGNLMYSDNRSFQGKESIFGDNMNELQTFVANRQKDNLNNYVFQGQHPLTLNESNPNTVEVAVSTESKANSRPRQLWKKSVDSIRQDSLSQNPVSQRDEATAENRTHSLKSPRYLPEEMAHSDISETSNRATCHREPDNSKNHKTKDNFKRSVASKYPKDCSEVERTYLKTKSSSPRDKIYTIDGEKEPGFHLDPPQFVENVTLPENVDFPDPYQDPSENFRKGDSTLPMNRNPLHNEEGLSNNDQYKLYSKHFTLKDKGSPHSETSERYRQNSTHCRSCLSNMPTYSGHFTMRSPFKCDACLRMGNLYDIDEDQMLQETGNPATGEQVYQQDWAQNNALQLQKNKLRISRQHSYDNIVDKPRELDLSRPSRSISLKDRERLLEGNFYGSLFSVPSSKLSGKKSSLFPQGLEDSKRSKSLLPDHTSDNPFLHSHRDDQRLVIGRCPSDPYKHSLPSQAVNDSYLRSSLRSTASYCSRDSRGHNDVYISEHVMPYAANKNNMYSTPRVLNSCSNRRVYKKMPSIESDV

[5] = biological target: T5, recombinant human NMDAR GluN1 plus GluN2D (Homo sapiens, UniProt O15399+Q05586); assay: FLIPR calcium assay, gentamicin as PAM (Example 5 Part I), GluN2D cell line; settings: 10 μM test item; dextromethadone in presence and absence of 10 μM gentamicin
T5 construct: expressed in transfected cells; host or cells: CHO
From the text: A FLIPR calcium assay was used to profile gentamicin using stable cell lines expressing diheteromeric recombinant human NMDARs, containing GluN1 plus one amongst GluN2A, GluN2B, GluN2C or GluN2D subunit.

[6] = operational analysis for allosteric modulators

SMILES: CCC(=O)C(C[C@H](C)N(C)C)(c1ccccc1)c1ccccc1 [Dextromethadone, dextromethadone]
- calcium response (mean±SEM) ([1]; 0.04 μM L-Glu + 10 μM DXT): 3.5 ± 0.2
- calcium response (mean±SEM) ([1]; 0.04 μM L-Glu + 100 μM QA + 10 μM DXT): 7.1 ± 0.4
- calcium response (mean±SEM) ([1]; 0.04 μM L-Glu + 1000 μM QA + 10 μM DXT): 33 ± 1.6
- calcium response (mean±SEM) ([1]; 0.2 μM L-Glu + 10 μM DXT): 71 ± 2.3
- calcium response (mean±SEM) ([1]; 0.2 μM L-Glu + 100 μM QA + 10 μM DXT): 69 ± 1.4
- calcium response (mean±SEM) ([1]; 0.2 μM L-Glu + 1000 μM QA + 10 μM DXT): 43 ± 1.1
- % effect on calcium entry, 100 QA + 10 DXT ([1]; 100 μM QA + 10 μM DXT): −2.4 ± 0.2%
- calcium response (mean±SEM) ([1]; 1000 μM QA + 10 μM DXT): 32 ± 0.9
- % effect on calcium entry, 1000 QA + 10 DXT ([1]; 1000 μM QA + 10 μM DXT): 32 ± 0.9%
- calcium response (mean±SEM) ([1]; 1000 μM QA + 10 μg/ml GENT + 10 μM DXT): 36 ± 0.8
- calcium response (mean±SEM) ([1]; Table 41: 0.04 μM L-Glu + 10 μM DXT): 3.5 ± 0.2
- calcium response (mean±SEM) ([1]; Table 43: 0.2 μM L-Glu + 10 μM DXT): 71 ± 2.3
- α, estimated cooperativity term [2, 6]: 0.17
- L-glutamate CRC HillSlope ([2]; with test item 49 nM): 1.3
- L-glutamate CRC LogEC50 ([2]; with test item 49 nM): −6.8
- L-glutamate CRC HillSlope ([2]; with test item 195 nM): 1.4
- L-glutamate CRC LogEC50 ([2]; with test item 195 nM): −6.8
- L-glutamate CRC HillSlope ([2]; with test item 781 nM): 2.2
- L-glutamate CRC LogEC50 ([2]; with test item 781 nM): −6.8
- L-glutamate CRC HillSlope ([2]; with test item 3.1 μM): 1.4
- L-glutamate CRC LogEC50 ([2]; with test item 3.1 μM): −6.8
- L-glutamate CRC HillSlope ([2]; with test item 12.5 μM): 1.5
- L-glutamate CRC LogEC50 ([2]; with test item 12.5 μM): −6.7
- L-glutamate CRC HillSlope ([2]; with test item 50 μM): 1.7
- L-glutamate CRC LogEC50 ([2]; with test item 50 μM): −6.6
- α, estimated cooperativity term [3, 6]: 0.26
- L-glutamate CRC HillSlope ([3]; with test item 49 nM): 1.2
- L-glutamate CRC LogEC50 ([3]; with test item 49 nM): −7.0
- L-glutamate CRC HillSlope ([3]; with test item 195 nM): 1.2
- L-glutamate CRC LogEC50 ([3]; with test item 195 nM): −6.9
- L-glutamate CRC HillSlope ([3]; with test item 781 nM): 1.2
- L-glutamate CRC LogEC50 ([3]; with test item 781 nM): −6.9
- L-glutamate CRC HillSlope ([3]; with test item 3.1 μM): 1.1
- L-glutamate CRC LogEC50 ([3]; with test item 3.1 μM): −6.9
- L-glutamate CRC HillSlope ([3]; with test item 12.5 μM): 1.3
- L-glutamate CRC LogEC50 ([3]; with test item 12.5 μM): −6.7
- L-glutamate CRC HillSlope ([3]; with test item 50 μM): 1.1
- L-glutamate CRC LogEC50 ([3]; with test item 50 μM): −6.4
- α, estimated cooperativity term [4, 6]: 0.22
- L-glutamate CRC HillSlope ([4]; with test item 49 nM): 1.0
- L-glutamate CRC LogEC50 ([4]; with test item 49 nM): −6.7
- L-glutamate CRC HillSlope ([4]; with test item 195 nM): 1.1
- L-glutamate CRC LogEC50 ([4]; with test item 195 nM): −6.6
- L-glutamate CRC HillSlope ([4]; with test item 781 nM): 1.1
- L-glutamate CRC LogEC50 ([4]; with test item 781 nM): −6.6
- L-glutamate CRC HillSlope ([4]; with test item 3.1 μM): 1.0
- L-glutamate CRC LogEC50 ([4]; with test item 3.1 μM): −6.6
- L-glutamate CRC HillSlope ([4]; with test item 12.5 μM): 1.0
- L-glutamate CRC LogEC50 ([4]; with test item 12.5 μM): −6.4
- L-glutamate CRC HillSlope ([4]; with test item 50 μM): 1.4
- L-glutamate CRC LogEC50 ([4]; with test item 50 μM): −6.4
- calcium entry induced by 0.04 μM L-glutamate [5]: significantly reduced
- calcium entry induced by 0.2 μM L-glutamate [5]: significantly reduced
- calcium entry induced by 10 μM L-glutamate [5]: significantly reduced
